# Measured values from paper PMC7826790, “Glucose 6-Phosphate Dehydrogenase from Trypanosomes: Selectivity for Steroids and Chemical Validation in Bloodstream Trypanosoma brucei” (Molecules, 2021).
# Like-named read-outs stand apart in the source and are kept apart here.
# Legend:
# [1] = Cytotoxicity to murine macrophages (WST-1); format: cell-based; conditions: mouse, J774 murine macrophage cells, read-out: CC50 Murine Macrophage (Cell Line J774)
# Experimental: (§2) Cell viability was assessed using the WST-1 reagent.
# (§3) EC50 values were obtained from the corresponding concentration/response plots fitted to a sigmoidal Hill equation or extrapolated from nonlinear fitting equations.
# [2] = system: T. cruzi epimastigotes (strain DM28); test: Cell viability of T. cruzi epimastigotes (propidium iodide, flow cytometry); conditions: 72 h; for cytotoxicity at 50 µM: read-out: % Cytotoxicity (50 µM) T. Cruzi Epimastigote Form, 50 µM, 72 h
# Experimental: T. cruzi epimastigotes (strain DM28) were grown at 28 °C in LIT medium supplemented with 10% (v/v) Fetal Bovine Serum (FBS; GIBCO®), 7.5 mM hemin and antibiotics (penicillin 10 U/mL– streptomycin 10 µg/mL). […] Thereafter, 200 µL from each well were transferred to individual cytometer tubes.
# EC50 values were obtained from the corresponding concentration/response plots fitted to a sigmoidal Hill equation or extrapolated from nonlinear fitting equations. The errors were calculated using error propagations and are expressed as S.D. estimated as σ^(n−1).
# [3] = system: Bloodstream T. b. brucei (strain 427- cell line 514-1313); test: Cell viability of bloodstream T. b. brucei (bioluminescent assay); format: cell-based, Trypanosoma brucei brucei; conditions: for EC50: 24 h incubation, read-out: EC50 T. brucei Bloodstream Form; for Selectivity Index (CC50 for murine macrophages/EC50 for T. brucei): DHEA: Hek293T CC50, Conessine: L6 CC50
# Experimental: Parasite viability was performed as described in [72]. […] Thereafter, 200 µL from each well were transferred to a 96-well black plate and incubated with 20 µL of a solution containing: 1.5 mg/mL luciferin in PBS glucose 1% (w/v) and Triton X-100.
# T. cruzi G6PDH [4] = biological target: T1, T. cruzi G6PDH (Trypanosoma cruzi, UniProt Q4E0B2); test: biochemical; format: biochemical
# T1 sequence (Q4E0B2 entry or part of it): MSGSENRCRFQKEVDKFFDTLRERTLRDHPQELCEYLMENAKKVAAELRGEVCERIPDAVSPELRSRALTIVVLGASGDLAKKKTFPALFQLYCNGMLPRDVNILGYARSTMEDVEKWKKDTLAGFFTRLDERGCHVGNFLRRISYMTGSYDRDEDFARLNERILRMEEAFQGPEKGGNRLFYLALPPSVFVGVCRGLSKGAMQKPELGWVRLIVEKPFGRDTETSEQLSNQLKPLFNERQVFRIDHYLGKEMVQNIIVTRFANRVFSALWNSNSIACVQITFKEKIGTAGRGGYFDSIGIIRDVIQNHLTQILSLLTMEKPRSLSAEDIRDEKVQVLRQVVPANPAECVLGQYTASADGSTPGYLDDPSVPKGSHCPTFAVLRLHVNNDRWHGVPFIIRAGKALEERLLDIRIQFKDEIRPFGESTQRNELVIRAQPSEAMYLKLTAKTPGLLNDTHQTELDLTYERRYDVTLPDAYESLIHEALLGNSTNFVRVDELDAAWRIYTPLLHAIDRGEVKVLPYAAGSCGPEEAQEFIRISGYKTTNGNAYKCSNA
# Experimental: (§1) E. coli Tuner (DE3) cells were transformed with the pET28a (+) and pHis constructs encoding for N-terminally hexa histidine-tagged TcG6PDHL and HsG6PDH, respectively, and grown overnight in LB medium with […] and […], respectively. […] Thereafter, the cultures were incubated for 20 h at 25 °C and 170 rpm. Cells were harvested by centrifugation (5000× g, 10 min, 4 °C), resuspended in buffer A (50 mM Tris, pH of 8.0, 500 mM NaCl and 5 mM MgCl2) containing a complete™ Protease Inhibitor Cocktail prepared as indicated by the provider (Sigma-Aldrich-Merck, Germany); afterwards, we added 1 mg/mL of lysozyme and incubated the cells for 1 h at 4 °C. […] Protein concentration was determined from the absorbance values at 280 nm and the corresponding theoretical absorbance coefficients.
# All reactions were performed in 50 mM Tris (pH 7.5) with 5 mM MgCl2 and 250 mM NaCl in a final volume of 500 µL. […] For each enzyme, a control reaction in the presence of 1% (v/v) DMSO was run. Stock and working solutions of compounds were prepared in 100% (v/v) DMSO. […] The initial velocities were calculated from the first 45 s of the reaction and normalized to the corresponding enzyme control. All measurements were performed at least in triplicate using a Cary 50 Bio spectrophotometer (Agilent Technologies, Santa Clara, CA, USA) at RT. The initial rates were determined with the Origin Pro 8.0 software (OriginLab Corporation, Northampton, MA, USA), and the IC50 values were calculated by nonlinear regression using the GraphPad Prism 5.0 software (GraphPad Inc., San Diego, CA, USA).
# human G6PDH [5] = biological target: T2, human G6PDH (Homo sapiens, UniProt P11413); test: G6PDH enzymatic assay, recombinant human G6PDH (NADPH formation at 340 nm); format: biochemical, H. sapiens; conditions: for inhibition at 100 µM: read-out: % inhibition of human G6PDH; for inhibition of human G6PDH at highest concentration: 100 µM
# T2 construct: hexa-histidine (His6) (N); made in house; host or cells: E. coli Tuner (DE3), pHis vector
# T2 sequence (P11413 whole entry): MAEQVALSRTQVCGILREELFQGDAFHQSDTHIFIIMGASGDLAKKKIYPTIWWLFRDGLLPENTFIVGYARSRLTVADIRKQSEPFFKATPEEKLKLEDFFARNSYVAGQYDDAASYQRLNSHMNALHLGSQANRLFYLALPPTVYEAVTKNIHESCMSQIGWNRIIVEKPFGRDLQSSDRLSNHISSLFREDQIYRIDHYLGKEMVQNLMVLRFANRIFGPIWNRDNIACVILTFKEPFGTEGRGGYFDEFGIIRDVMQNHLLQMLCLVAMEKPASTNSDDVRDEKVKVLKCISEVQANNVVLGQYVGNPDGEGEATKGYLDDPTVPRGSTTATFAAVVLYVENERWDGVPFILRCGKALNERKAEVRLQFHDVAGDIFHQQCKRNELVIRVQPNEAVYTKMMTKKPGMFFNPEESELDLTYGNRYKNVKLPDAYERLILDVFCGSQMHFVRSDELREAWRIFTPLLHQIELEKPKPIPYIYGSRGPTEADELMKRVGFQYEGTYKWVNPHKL
# Experimental: as §1, with “°C. Cells were further lysed by three cycles of sonication (45% amplitude, 2 s pulse on/off, for 1 min) using a macrotip in a Branson Digital Sonifier 450 (Marshall Scientific, Hampton, VA, USA) and debris was removed by centrifugation at 27,000× g for 45 min at 4 °C and filtrated through a 0.45 µm filter (Millipore-Merck, Darmstadt, Germany).” for “°C.”
# G6PDH activity was determined at room temperature (RT) by monitoring NADPH (ε340 = 6220 M^−1 cm^−1) formation at 340 nm. All reactions were performed in 50 mM Tris (pH 7.5) with 5 mM MgCl2 and 250 mM NaCl in a final volume of 500 µL. The reactions were started by the addition of 700 µM NADP^+ and 6 mM G6P for TcG6PDH or by the addition of 250 µM NADP^+ and 1 mM G6P for the human enzyme. For each enzyme, a control reaction in the presence of 1% (v/v) DMSO was run. Stock and working solutions of compounds were prepared in 100% (v/v) DMSO. […] The initial velocities were calculated from the first 45 s of the reaction and normalized to the corresponding enzyme control. All measurements were performed at least in triplicate using a Cary 50 Bio spectrophotometer (Agilent Technologies, Santa Clara, CA, USA) at RT. The initial rates were determined with the Origin Pro 8.0 software (OriginLab Corporation, Northampton, MA, USA), and the IC50 values were calculated by nonlinear regression using the GraphPad Prism 5.0 software (GraphPad Inc., San Diego, CA, USA).
# [6] = system: Murine macrophages (cell line J774); test: Cytotoxicity to murine macrophages (WST-1); format: cell-based; conditions: 24 h, read-out: CC50 Murine Macrophage (Cell Line J774)
# Experimental: as §2, §3
# human G6PDH [7] = biological target: T2, human G6PDH; set-up: method as in PMID 22506561; conditions: read-out: IC50 H. sapiens G6PDH; cited from earlier work
# [8] = system: mammalian L6 cell line from rat skeletal myoblasts; set-up: method as in PMID 28684718; conditions: printed in the macrophage column; read-out: CC50 against mammalian L6 cell line; cited from earlier work
# [9] = system: Bloodstream T. b. brucei (strain 427- cell line 514-1313); set-up: method as in PMID 28684718; conditions: read-out: EC50 T. brucei Bloodstream Form, cited from earlier work
# [10] = system: Bloodstream T. b. brucei expressing the redox biosensor hGrxroGFP2; test: Redox reporter assay (hGrx1-roGFP2 biosensor, flow cytometry); format: cell-based, Trypanosoma brucei brucei
# Experimental: Bloodstream T. b. brucei expressing the redox biosensor hGrxroGFP2 was grown as described elsewhere. […] Next, 50 µL from each well were transferred to a 96-well plate, containing 100 µL of sterile PBS with glucose 1% (w/v). […] GFP fluorescence (filter λem = 530/40 nm) was only analyzed for viable cells (PI negative). The data were processed and analyzed with the C6Accuri software. Samples were analyzed in triplicate and the error is expressed as S.D.
# Hek293T = conditions: read-out: CC50 against Hek293T; printed in the macrophage column; cited from earlier work
# L. mexicana G6PDH = conditions: cited from earlier work
# T. cruzi G6PDH [11] = biological target: T1, T. cruzi G6PDH; conditions: read-out: IC50 T. cruzi G6PDH, cited from earlier work
# [12] = system: G6PDH in T. cruzi strain CL Brenner epimastigotes; conditions: 24 h
# [13] = recombinant human G6PDH, 250 µM NADP+, 1 mM G6P, RT, read-out: IC50 H. sapiens G6PDH
compound,measurement,setting,value
"C[C@]12CC[C@H](O)C[C@@H]1CC[C@@H]1[C@@H]2CC[C@]2(C)C(=O)[C@H](Br)C[C@@H]12 [Compound 1, 16α-bromo-epiandrosterone]",CC50 at 24 h,[1],8.8 ± 1 µM
same,% Cytotoxicity (50 µM) T. Cruzi Epimastigote Form,[2],14.5 ± 5.3%
same,cytotoxicity at 50 µM,[2]; Trypanosoma cruzi,15%
same,EC50,"[3]; Trypanosoma brucei, 24 h",1.9 ± 0.2 µM
CC(=O)O[C@H]1CC[C@@]2(C)[C@@H](CC[C@@H]3[C@@H]2CC[C@]2(C)C(=O)[C@H](Br)C[C@@H]32)C1 [Compound 2],CC50 at 24 h,[1],42 ± 1 µM
same,cytotoxicity at 50 µM,[2]; Trypanosoma cruzi,64 ± 4.1%
same,IC50,T. cruzi G6PDH [4],0.11 ± 0.02 µM
same,EC50,"[3]; Trypanosoma brucei, 24 h",5.3 ± 0.4 µM
same,IC50,human G6PDH [5],> 100 µM
same,inhibition at 100 µM,human G6PDH [5],0%
CC(=O)O[C@H]1CC[C@@]2(C)[C@@H](CC[C@@H]3[C@@H]2CC[C@]2(C)C(=O)[C@@H](Br)C[C@@H]32)C1 [Compound 3],CC50 at 24 h,[1],0.96 µM
same,CC50,[6],1 ± 0.1 µM
same,% Cytotoxicity (50 µM) T. Cruzi Epimastigote Form,[2],73.9 ± 3.4%
same,cytotoxicity at 50 µM,[2]; Trypanosoma cruzi,74%
same,IC50,T. cruzi G6PDH [4],1.5 ± 0.2 µM
same,EC50,"[3]; Trypanosoma brucei, 24 h",4.8 ± 0.5 µM
same,IC50,human G6PDH [5],> 100 µM
same,inhibition of human G6PDH at highest concentration,human G6PDH [5],inactive
C[C@]12CC[C@H](O)CC1=CC[C@@H]1[C@@H]2CC[C@]2(C)C(=O)[C@H](Br)C[C@@H]12 [Compound 4],CC50 at 24 h,[1],19 ± 3 µM
same,cytotoxicity at 50 µM,[2]; Trypanosoma cruzi,6.4 ± 1.6%
same,EC50,"[3]; Trypanosoma brucei, 24 h",7.5 ± 0.3 µM
same,IC50,human G6PDH [5]; [13],48 ± 2.6 µM
CC(=O)O[C@H]1CC[C@@]2(C)C(=CC[C@@H]3[C@@H]2CC[C@]2(C)C(=O)[C@H](Br)C[C@@H]32)C1 [Compound 5],CC50 at 24 h,[1],39 ± 3 µM
same,cytotoxicity at 50 µM,[2]; Trypanosoma cruzi,30.9 ± 2.5%
same,IC50,T. cruzi G6PDH [4],0.079 ± 0.01 µM
same,EC50,"[3]; Trypanosoma brucei, 24 h",18 ± 3 µM
same,IC50,human G6PDH [5],> 100 µM
same,inhibition at 100 µM,human G6PDH [5],0%
CC(=O)O[C@H]1CC[C@@]2(C)C(=CC[C@@H]3[C@@H]2CC[C@]2(C)C(=O)[C@@H](Br)C[C@@H]32)C1 [Compound 6],CC50 at 24 h,[1],4.5 ± 0.4 µM
same,% Cytotoxicity (50 µM) T. Cruzi Epimastigote Form,[2],76.2 ± 0.8%
same,cytotoxicity at 50 µM,[2]; Trypanosoma cruzi,76%
same,IC50,T. cruzi G6PDH [4],> 50 µM
same,EC50,"[3]; Trypanosoma brucei, 24 h",5.3 ± 0.5 µM
same,IC50,human G6PDH [5],> 100 µM
same,inhibition of human G6PDH at highest concentration,human G6PDH [5],inactive
C[C@]12CC[C@H](O)CC1=CC[C@@H]1[C@@H]2CC[C@]2(C)C(=O)C(O)C[C@@H]12 (stereo partly shown) [Compound 7],CC50 at 24 h,[1],> 24 µM
same,cytotoxicity at 50 µM,[2]; Trypanosoma cruzi,3.9 ± 0.7%
same,EC50,[3],> 24 µM
same,EC50,"[3]; Trypanosoma brucei, 24 h",24 to 44 µM
same,IC50,human G6PDH [7],15.8 ± 3.3 µM
"C[C@H]1[C@H]2CC[C@H]3[C@@H]4CC=C5C[C@@H](N(C)C)CC[C@]5(C)[C@H]4CC[C@]23CN1C [Conessine, reference compound]",CC50,[8],61.2 µM
same,inhibition of T. cruzi G6PDH at highest concentration,T. cruzi G6PDH [4]; 100 µM,did not inhibit
same,IC50,"T. cruzi G6PDH [4]; recombinant TcG6PDH, 700 µM NADP+, 6 mM G6P, RT, read-out: IC50 T. cruzi G6PDH",> 100 µM
same,Selectivity Index (CC50 for murine macrophages/EC50 for T. brucei),[3],145.7
same,EC50,[9]; footnote e,0.42 ± 0.01 µM
same,induction of oxidative stress in bloodstream trypanosomes,[10],did not induce oxidative stress
same,inhibition of human G6PDH at highest concentration,human G6PDH [5],did not inhibit
same,IC50,human G6PDH [5]; [13],> 100 µM
"C[C@]12CC[C@H](O)CC1=CC[C@@H]1[C@@H]2CC[C@]2(C)C(=O)CC[C@@H]12 [DHEA, dehydroepiandrosterone]",CC50,Hek293T,25 ± 13 µM
same,EC50,[9]; footnote c,43.8 ± 2 µM
same,inhibition of L. mexicana G6PDH,L. mexicana G6PDH,refractory
same,IC50,human G6PDH [7],~10 µM
same,IC50,T. cruzi G6PDH [11]; TcG6PDH,21.5 ± 0.5 µM
"C[C@]12CC[C@H](O)C[C@@H]1CC[C@@H]1[C@@H]2CC[C@]2(C)C(=O)CC[C@@H]12 [EA, Epiandrosterone]",G6PDH specific activity in cell extracts,[12]; 25 μM EA,0.12 U/mg
same,G6PDH specific activity in cell extracts,[12]; 100 μM EA,0.09 U/mg
same,EC50,[9]; footnote c,36.5 ± 3.6 µM
same,inhibition of L. mexicana G6PDH,L. mexicana G6PDH,refractory
same,IC50,human G6PDH [7],~10 µM
same,IC50,T. cruzi G6PDH [11]; recombinant TcG6PDH,3 ± 0.4 µM
"CC1CS(=O)(=O)CCN1/N=C/c1ccc([N+](=O)[O-])o1 (stereo not shown) [Nifurtimox, reference compound]",CC50 at 24 h,[1],140 ± 2 µM
same,cytotoxicity at 24 µM,"[2]; Trypanosoma cruzi, read-out: % Cytotoxicity T. Cruzi Epimastigote Form, at 24 µM, 72 h",46 ± 1.9%
same,Selectivity Index (CC50 for murine macrophages/EC50 for T. brucei),[3],23.3
same,EC50,"[3]; Trypanosoma brucei, 24 h",6 ± 0.4 µM
CN(C)C(=O)/N=N/C(=O)N(C)C [diamide],biosensor oxidation,"[10]; 250 µM, 20 min",54%
